Experimental data: patent US20100216661A1, “Diagnostic Assay” (priority 2007, published 2010)
Each block holds one substance with its values, some of them ahead of it.

Tests used:
[1] = tested on: anti-RhE monoclonal antibody E0003 (NaTH110-IH4); test: Biopanning of phage-peptide libraries with anti-RhE E0003; assay type: binding, Human; conditions: IgM antibody
Source text: (§1) Three different phage libraries from New England Biolabs. (Ph.D. 7 and Ph.D. 12 displaying linear 7- and 12-mer peptides, respectively and Ph.D. C7C displaying 7-mer peptides constrained by a disulphide bridge at their termini) and a linear 15mer library (kindly provided by Prof. George P. Smith, University of Missouri) were used in biopanning experiments with 10 different monoclonal antibodies and a polyclonal preparation (Table 1).
(§2) For each target antibody/library combination, a separate well of a 96-well Immulon 4 flat-bottomed ELISA plate (Thermo Labsystems) was coated with 5 μg of antibody in 150 μl ELISA coating buffer (15 mM Na2CO3, 35 mM NaHCO3, pH9.6). Plates were sealed and incubated at 4° C. overnight. Unbound antibody was discarded and 350 μl of blocking buffer (0.1M NaHCO3/3% skimmed milk powder) was added to each well. Plates were sealed and incubated for 1 hour at 4° C. The blocking buffer was removed and the wells were washed six times with 300 μl TBS/0.1% Tween 20. Approximately 2×10^11 plaque forming units (pfu) in 100 μl TBS/0.1% Tween 20 were added to each well and the plates were incubated at room temperature for 1 hour. Wells were washed ten times with 300 μl TBS/0.1% Tween 20. […] The specificity of peptide-antibody binding was subsequently determined using both phage ELISA and SPOTs techniques.

[2] = tested on: anti-RhE monoclonal antibody E0002; test: SPOTs membrane hybridisation with anti-RhE monoclonal E0002; assay type: binding, Human; conditions: FIG. 9; 36 RhE peptide mimotopes; CPep75 (Spot 37), CPep76 (Spot 38) negative controls
Description: (§3) The peptide mimotopes were synthesised by the SPOT method (Frank; 1992) using F-moc chemistry. The peptides were anchored to an amino-PEG derivatised cellulose membrane (Intavis AG) and synthesised as discrete spots. Synthesis was by stepwise elongation of the peptide chain from C-terminus to the N-terminus, by manual pipetting of the respective amino acids, according to the Sigma Genosys protocol. Incubation times were modified when using Intavis AG membranes. After addition of the final amino acid, the terminal residues and side chains of the peptides were deprotected and the membrane was washed with methanol; air dried and then stored at −20° C. prior to use.
(§4) A membrane was placed in a 50 ml Falcon tube and blocked overnight at 4° C. with gentle agitation in TBS/0.25% Tween 20/5% skimmed milk powder. A 2 μg/ml dilution of the primary (1°) antibody (monoclonal or polyclonal) was prepared in TBS/0.25% Tween20/5% skimmed milk powder before incubation with the membrane for 1 hour at room temperature on a spiral rotor. Following 4 washes, each for 5 minutes with 20 ml of TBS/0.25% Tween20, the membrane was incubated for 1 hour at room temperature with a 1/5000 dilution of the secondary (2°) antibody, prepared in TBS/0.25% Tween20/5% skimmed milk powder. Peroxidase labelled rabbit anti-mouse IgG (Sigma) was used for the detection of the murine anti-Fy^a (LM487) and anti-Fy^b (LM447) 1° antibodies and peroxidase labelled goat anti-human IgG (Pharmacia) for the detection of the human 1° antibodies. Following 4 washes, each for 5 minutes with 20 ml of TBS/0.25% Tween20, the membrane was blotted to remove excess fluid. Bound antibody was detected by chemiluminescence. ECL detection reagents (Amersham Biosciences) were mixed and overlaid on the membrane for 2 minutes. The chemiluminescent substrate was removed and the membrane blotted to remove excess fluid. Positive spots were visualised following exposure to Hyperfilm ECL (Amersham Biosciences) for a series of short incubation times (5 seconds to 10 minutes).
The RhD, RhE and Rhe peptide mimotopes (see Tables 4 & 5) were synthesised by SPOTs and hybridisation of the membranes was undertaken with the appropriate antibodies (Table 1). FIGS. 7-10 show examples of peptide mimotopes reacting specifically with the antibody originally used in their selection.

[3] = tested on: anti-RhE monoclonal antibody E0002 (NaTH110-1D6); test: Biopanning of phage-peptide libraries with anti-RhE E0002; assay type: binding, Human; conditions: IgM antibody
Source text: as §1
For each target antibody/library combination, a separate well of a 96-well Immulon 4 flat-bottomed ELISA plate (Thermo Labsystems) was coated with 5 μg of antibody in 150 μl ELISA coating buffer (15 mM Na2CO3, 35 mM NaHCO3, pH9.6). Plates were sealed and incubated at 4° C. overnight. Unbound antibody was discarded and 350 μl of blocking buffer (0.1M NaHCO3/3% skimmed milk powder) was added to each well. Plates were sealed and incubated for 1 hour at 4° C. The blocking buffer was removed and the wells were washed six times with 300 μl TBS/0.1% Tween 20. Approximately 2×10^11 plaque forming units (pfu) in 100 μl TBS/0.1% Tween 20 were added to each well and the plates were incubated at room temperature for 1 hour. Wells were washed ten times with 300 μl TBS/0.1% Tween 20. Bound phage were eluted by incubation with 100 μl of 0.2M glycine-HCl/BSA, pH2.2 (1 mg/ml) for 10 minutes, then neutralised with 15 μl of 1M Tris-HCL (pH9.1). An aliquot of the Round 1 eluate was removed and titred. The remainder of the eluted phage were amplified by infection of E. coli ER2538 cells for 4.5 hours at 37° C. The cultures were centrifuged for 10 minutes at 10,000 rpm at 4° C. The supernatants were recovered, ⅙ volume PEG/NaCl (20% polyethylene glycol 8000; 2.5M NaCl) added, then incubated overnight at 4° C. The PEG-precipitated phage were centrifuged at 10,000 rpm for 15 minutes at 4° C. The supernatant was removed and the phage pellet resuspended in 200 μl TBS. […] The specificity of peptide-antibody binding was subsequently determined using both phage ELISA and SPOTs techniques.

[4] = tested on: anti-Fy^a monoclonal antibody (LM487); test: Biopanning of phage-peptide libraries with anti-Fy^a LM487; assay type: binding, Murine; conditions: three rounds of panning
Source text: as §1, §2

[5] = tested on: anti-Fy^a monoclonal antibody (LM487); test: SPOTs membrane hybridisation with anti-Fy^a antibody; assay type: binding, Murine
Description: as §3
A membrane was placed in a 50 ml Falcon tube and blocked overnight at 4° C. with gentle agitation in TBS/0.25% Tween 20/5% skimmed milk powder. A 2 μg/ml dilution of the primary (1°) antibody (monoclonal or polyclonal) was prepared in TBS/0.25% Tween20/5% skimmed milk powder before incubation with the membrane for 1 hour at room temperature on a spiral rotor. Following 4 washes, each for 5 minutes with 20 ml of TBS/0.25% Tween20, the membrane was incubated for 1 hour at room temperature with a 1/5000 dilution of the secondary (2°) antibody, prepared in TBS/0.25% Tween20/5% skimmed milk powder. […] Bound antibody was detected by chemiluminescence. […]

[6] = tested on: anti-RhE monoclonal antibody E0001 (HIRO17); test: Biopanning of phage-peptide libraries with anti-RhE E0001; assay type: binding, Human; conditions: IgG1 antibody
Source text: as §1, §2

[7] = tested on: polyclonal anti-RhD preparation (Human Anti-D Ig); test: SPOTs membrane hybridisation with polyclonal anti-RhD; assay type: binding; conditions: FIG. 8; Spots 1-25 = RhD81-105; Spots 26-28 = RhD68, RhD71, RhD79; Spot 29 CPep75 and Spot 30 CPep76 negative controls
Description: as §3
as §4, with “minutes). […]” for “minutes).”

[8] = tested on: anti-RhD monoclonal antibody T10 (LHM76/55); test: Biopanning of phage-peptide libraries with anti-RhD T10; assay type: binding, Human; conditions: phage-peptide libraries; three rounds of panning
Source text: as §1
For each target antibody/library combination, a separate well of a 96-well Immulon 4 flat-bottomed ELISA plate (Thermo Labsystems) was coated with 5 μg of antibody in 150 μl ELISA coating buffer (15 mM Na2CO3, 35 mM NaHCO3, pH9.6). Plates were sealed and incubated at 4° C. overnight. Unbound antibody was discarded and 350 μl of blocking buffer (0.1M NaHCO3/3% skimmed milk powder) was added to each well. Plates were sealed and incubated for 1 hour at 4° C. The blocking buffer was removed and the wells were washed six times with 300 μl TBS/0.1% Tween 20. Approximately 2×10^11 plaque forming units (pfu) in 100 μl TBS/0.1% Tween 20 were added to each well and the plates were incubated at room temperature for 1 hour. Wells were washed ten times with 300 μl TBS/0.1% Tween 20. Bound phage were eluted by incubation with 100 μl of 0.2M glycine-HCl/BSA, pH2.2 (1 mg/ml) for 10 minutes, then neutralised with 15 μl of 1M Tris-HCL (pH9.1). An aliquot of the Round 1 eluate was removed and titred. The remainder of the eluted phage were amplified by infection of E. coli ER2538 cells for 4.5 hours at 37° C. The cultures were centrifuged for 10 minutes at 10,000 rpm at 4° C. The supernatants were recovered, ⅙ volume PEG/NaCl (20% polyethylene glycol 8000; 2.5M NaCl) added, then incubated overnight at 4° C. The PEG-precipitated phage were centrifuged at 10,000 rpm for 15 minutes at 4° C. The supernatant was removed and the phage pellet resuspended in 200 μl TBS. Two further rounds of panning were undertaken and approximately 2×10^11 pfu of the Round 2 or Round 3 amplified eluates were used as input phage. Round 3 eluates were titrated but not amplified. Individual plaques were amplified and subjected to PCR amplification, prior to DNA sequence analysis. The specificity of peptide-antibody binding was subsequently determined using both phage ELISA and SPOTs techniques.

[9] = tested on: anti-Fy^a monoclonal antibody (LM487); test: Phage ELISA (capture ELISA) of phage-peptides on coated anti-Fy^a antibody; assay type: binding, Murine; conditions: FIG. 3; 19 Fya phage-peptide clones (Fya1-18 & Fya25); OD450 greater than 0.1 considered positive
Description: The ability of the recovered phage-peptides to react with the antibodies used in their selection was confirmed by capture ELISA. A 10 μg/ml stock of appropriate monoclonal antibody was prepared in ELISA coating buffer and 150 μl aliquots were added to wells of an Immulon 4 ELISA plate, and then incubated overnight at 4° C. Unbound antibody was discarded and the wells were blocked with 350 μl of blocking buffer (0.1M NaHCO3/3% skimmed milk powder) for 1 hour at 4° C. The wells were washed three times with 300 μl TBS/0.5% Tween 20 and 100 μl of selected phage culture supernatants were added to appropriate wells for 1 hour at room temperature. Unbound phage were removed and the wells washed six times with 300 μl TBS/0.5% Tween 20. A 1:5000 dilution of horseradish peroxidase (HRP) conjugated anti-M13, secondary antibody was prepared in blocking buffer and 100 μl aliquots added to each well. Following incubation for 1 hour at room temperature the wells were washed six times with 300 μl TBS/0.5% Tween 20. To develop the reactions, a 200 μl aliquot of o-phenylenediamine dihydrochloride (OPD) substrate (Sigma) was added to each well. The absorbance at 450 nm was measured, following incubation at room temperature for 1 hour, by a microplate ELISA reader. An OD450 signal greater than 0.1 was considered positive.
Phage ELISA analysis of 19 “Fy^a” phage-peptide clones (Peptides Fya1-18 & Fya25; see Table 3 for sequence details) confirmed the binding specificity of the LM487 antibody for the Fy^a phage-peptides.

Substance: PDGDYGANLEAAAP [CPep118, 14-mer immunisation peptide used to generate the anti-Fy^a antibody, reference compound]
Reciprocal SPOTs hybridisation: binding of anti-Fy^a monoclonal antibody ([5]; FIG. 5, Spots 1-37 = Fya 1-37, Spots 38-40 = Fya17, Fya25, Fya35, Spot 41 Cpep75, 42 Cpep76, 43 CPep118, 44 Fyb1, membranes hybridised in parallel with both antibodies): Fy^a-specificity

Substance: Fya20: Fya peptide mimotope, Table 3; contains sequence identical to the Fy^a polymorphism (GIAEDDYGALSW)
Selection by biopanning with anti-Fy^a monoclonal antibody LM487 [4]: bound

Substance: RhE19: RhE peptide mimotope, Table 5 (SFQDALLSRWYS)
SPOTs binding of anti-RhE monoclonal antibody E0002 [2]: Specific binding | Selection by biopanning with anti-RhE antibody E0002 [3]: selected | Selection by biopanning with anti-RhE antibody E0001 [6]: selected

Substance: RhD71: RhD peptide mimotope, Table 4 (VPWFRAP)
SPOTs recognition by polyclonal anti-RhD [7]: recognised | Selection by biopanning with anti-RhD monoclonal antibody T10 [8]: identified through biopanning

Substance: RhD79: RhD peptide mimotope, Table 4 (LPWYRH)
SPOTs recognition by polyclonal anti-RhD [7]: recognised | Selection by biopanning with anti-RhD monoclonal antibody T10 [8]: identified through biopanning

Substance: RhD68: RhD peptide mimotope, Table 4 (LDTYWYREHFRR)
SPOTs recognition by polyclonal anti-RhD [7]: recognised | Selection by biopanning with anti-RhD monoclonal antibody T10 [8]: identified through biopanning

Further lines, with some results ahead:

SPOTs binding of anti-RhE monoclonal antibody E0002 [2]: Specific binding
Substance: RhE24: RhE peptide mimotope, Table 5 (GPSYYALITRYLGAA)
Selection by biopanning with anti-RhE antibody E0003 [1]: selected | Selection by biopanning with anti-RhE antibody E0002 [3]: selected

SPOTs binding of anti-Fy^a antibody LM487 to membrane-synthesised peptide ([5]; FIG. 4, 37 peptides Fya1-37 synthesised as SPOTs): strong positive signal
Substance: Fya15: Fya peptide mimotope, Table 3; contains sequence identical to the Fy^a polymorphism (SDGDYGA)
Selection by biopanning with anti-Fy^a monoclonal antibody LM487 [4]: bound

Phage ELISA binding of phage-peptide to anti-Fy^a antibody LM487 [9]: failed to bind
Substance: Fya14: Fya peptide mimotope, Table 3 (GDWLHW)

Phage ELISA binding of phage-peptide to anti-Fy^a antibody LM487 [9]: failed to bind
Substance: Fya18: Fya peptide mimotope, Table 3 (PSPGQI)

SPOTs binding of anti-RhE monoclonal antibody E0002 [2]: Specific binding
Substance: RhE18: RhE peptide mimotope, Table 5 (IPEEALRARFKT)
Selection by biopanning with anti-RhE antibody E0003 [1]: selected | Selection by biopanning with anti-RhE antibody E0002 [3]: selected

Phage ELISA binding of phage-peptide to anti-Fy^a antibody LM487 [9]: failed to bind
Substance: Fya2: Fya peptide mimotope, Table 3 (TNLRLPA)
